Earlier results on two substances are cited in PMC8894159, “Paltusotine, a novel oral once-daily nonpeptide SST2 receptor agonist, suppresses GH and IGF-1 in healthy volunteers” (Pituitary, 2022).

In data set [1] the test system is IGF-1. More on the design: method as in PMID 25664604. The settings on record: twice-daily oral preparation; patients previously controlled on depot preparations; cited from earlier work.
On the set-up of data set [2]: method as in PMID 25260838. The note with it: patients taking pasireotide; cited from earlier work.

As to octreotide, the “patients maintaining IGF-1 control” value in data set [1] is reported as 58%.
For the substance pasireotide, the patients with hyperglycemia/diabetes entry in data set [2] is “approximately 57%”.
